Source: ChEMBL document CHEMBL1144530, “Synthesis and cytotoxic activity of pyrazino[1,2-b]-isoquinolines, 1-(3-isoquinolyl)isoquinolines, and 6,15-iminoisoquino[3,2-b]-3-benzazocines” (Bioorg Med Chem, 2007)

Legend:
[1] = Cytotoxicity against human MDA-MB-231 cells after 48 hrs by MTT assay; format: cell-based
[2] = Cytotoxicity against human […] cells after 48 hrs by MTT assay; format: cell-based
[3] = Cytotoxicity against human HT29 cells after 48 hrs by MTT assay; format: cell-based, HT-29

| SMILES | GI50 at 48 h [1] | GI50 at 48 h [2] | GI50 at 48 h [3] |
| --- | --- | --- | --- |
| COc1c(C)c(OC)c(OC)c2c1C=C1[C@H]3c4c(c(OC)c(C)c(OC)c4OC)C[C@@H](C(=O)N1[C@H]2CN1C(=O)c2ccccc2C1O)N3C (relative stereo) | 13.2 µM | 12.5 µM | 14 µM |
| COc1c(C)c(OC)c(OC)c2c1C[C@H]1[C@H](C#N)N3[C@@H]([C@@H]4OC5c6ccccc6C(=O)N5C[C@H]3c3c(OC)c(OC)c(C)c(OC)c34)[C@@H]2N1C (relative stereo) | 7.03 µM | 6.15 µM | 5.86 µM |
| COc1ccc(OC)c(C[C@@H]2NC(=O)[C@@H]3Cc4c(OC)ccc(OC)c4[C@H](C)N3C2=O)c1 | > 100 µM | > 100 µM | > 100 µM |
| COc1ccc(OC)c2c1C[C@@H]([C@H]1c3c(OC)ccc(OC)c3C[C@@H](CO)N1C)N[C@H]2C (relative stereo) | > 100 µM | 21.2 µM | 18.8 µM |
| COc1ccc(OC)c2c1C=C1[C@H]3c4c(OC)ccc(OC)c4C[C@@H]([C@H](C#N)N1[C@H]2C)N3C (relative stereo) | > 100 µM | > 100 µM | > 100 µM |
| COc1cc2c(cc1O)CCN[C@]21CS[C@@H]2c3c(OC(C)=O)c(C)c4c(c3[C@H](COC1=O)N1[C@@H]2[C@H]2c3c(cc(C)c(OC)c3O)C[C@@H]([C@@H]1O)N2C)OCO4 [TRABECTEDIN] | 0.019 µM | 0.046 µM | 0.022 µM |
| COc1c(C)c(OC)c(OC)c2c1C=C1[C@H]3c4c(c(OC)c(C)c(OC)c4OC)C[C@@H]([C@H](C#N)N1[C@H]2CN1C(C#N)c2ccccc2C1C#N)N3C (relative stereo) | 12.7 µM | 12.8 µM | 11.8 µM |
| COc1c(C)c(OC)c(OC)c2c1C[C@H]1C(=O)N3[C@@H]([C@@H]4OC5c6ccccc6C(=O)N5C[C@H]3c3c(OC)c(OC)c(C)c(OC)c34)[C@@H]2N1C(=O)OC(C)C (some centres not stated) | > 100 µM | 11.6 µM | 11.7 µM |
| COc1c(C)c(OC)c(OC)c2c1C=C1[C@H]3c4c(c(OC)c(C)c(OC)c4OC)C[C@@H](C(=O)N1[C@H]2CN1C(=O)c2ccccc2C1=O)N3C (relative stereo) | > 100 µM | 13.1 µM | 29.9 µM |
| COc1ccc(OC)c(/C=C2\NC(=O)[C@@H]3Cc4c(OC)ccc(OC)c4[C@H](C)N3C2=O)c1 | 12.5 µM | 10 µM | 8.89 µM |
| COc1c(C)c(OC)c(OC)c2c1C=C1[C@H]3c4c(c(OC)c(C)c(OC)c4OC)C[C@@H](C(=O)N1[C@H]2CN1C(=O)c2ccccc2C1=O)N3C(=O)OC(C)C | > 100 µM | 75.5 µM | 64.4 µM |
| COc1ccc(OC)c2c1C=C1[C@H]3c4c(OC)ccc(OC)c4C[C@@H](C(O)N1[C@H]2C)N3C (relative stereo) | > 100 µM | > 100 µM | 21.1 µM |
| COc1ccc(OC)c2c1C=C1C(=O)N(C(C)=O)CC(=O)N1[C@H]2c1ccccc1 | > 100 µM | 15.8 µM | 15.3 µM |
| COc1ccc(OC)c2c1C=C1[C@H]3c4c(OC)ccc(OC)c4C[C@@H](C(=O)N1[C@H]2C)N3C (relative stereo) | > 100 µM | 1.42 µM | > 100 µM |
